Key:
CMK = assay: Cell viability assay; type: cell-based; details: Homo sapiens, 24 h; CMK (AML); read-out: AZD5991 24h GI50
Description: (§4) Cells were plated at 3000 cells/well in 384-well white plates in corresponding cell growth media. […] Caspase-3/7 activation was subsequently determined using a Caspase-Glo 3/7 Reagent (Promega) and viability was assayed using the CellTiter-Glo Reagent (Promega) as described in manufacturer’s instructions. Dose–response curves for caspase-3/7 activation and viability were plotted and analyzed (including EC50 and GI50 determination) using GraphPad Prism.

GRANTA519 = assay: Cell viability assay; type: cell-based; details: Homo sapiens, Granta-519, 24 h; GRANTA519 (NHL); read-out: AZD5991 24h GI50
Description: as §4

GIST 430/654 = assay: Cell viability assay; type: cell-based; details: 24 h; GIST 430/654 (GI); read-out: AZD5991 24h GI50
Description: as §4

A375 = assay: Cell viability assay; type: cell-based; details: Homo sapiens, A-375, 24 h; A375 (Skin); read-out: AZD5991 24h GI50
Description: as §4

H2122 = assay: Cell viability assay; type: cell-based; details: Homo sapiens, NCI-H2122, 24 h; H2122 (Lung); read-out: AZD5991 24h GI50
Description: as §4

[1] = system: Eμ-Myc lymphoma cells, control; assay: cells; details: Mus musculus, 24 h, read-out: apoptosis induction EC50 control
Text: The retroviral plasmids to express human Bcl-2 family members in murine Eμ-Myc lymphoma cells are MSCV-hMCL-1-GFP, MSCV-hBCL-2-GFP, MSCV-hBCL-XL-GFP, MSCV-hBFL-1/A1-GFP, and MSCV-hBCL-w-GFP. To produce viruses, constructs of interest were co-transfected into HEK293T cells with the plasmid encoding the packaging viruses (p-CL-AMPHO provided by Phillip Darcy from Peter MacCallum Cancer Center, Melbourne, Australia) using standard calcium phosphate transient transfection technique. The retroviruses were harvested, filtered and used to infect target cells following standard procedures.
Samples were then centrifuged, washed twice with PBS and analyzed by flow cytometry in a BD LSRFortessa. FACSDiva software was used for data collection and FlowJo software for data analysis.

MM1R = assay: Cell viability assay; type: cell-based; details: MM.1R, 24 h, read-out: AZD5991 24h GI50
Description: as §4

ML2 = assay: Cell viability assay; type: cell-based; details: Homo sapiens, ML-2, 24 h; ML2 (AML); read-out: AZD5991 24h GI50
Description: as §4

Bfl-1 = target: T1, Bfl-1 (Homo sapiens, UniProt Q16548); assay: TR-FRET binding assay
T1 construct: N-Terminal 6His-tagged Bfl-1 protein from Bfl-1 (M1-K151); made in house; host or cells: E. coli
Text: (§1) N-terminal GST-tagged-Mcl-1 protein from Mcl-1 (E171-G327), N-terminal GST-tagged Bcl-xL protein from Bcl-xL (1-209), N-Terminal 6His-tagged Bfl-1 protein from Bfl-1 (M1-K151), N-Terminal 6His-tagged Bcl-w protein from Bcl-w (M1-R171), and C-Terminal 6His-tagged Bcl-2 protein from Bcl-2 (M1-F212) were expressed as a tagged fusion protein in E. coli and subsequently purified via Glutathione Sepharose-affinity or Ni-NTA resin purification, and size-exclusion chromatography.
(§2) For TR-FRET, tagged fusion proteins were incubated with a Europium-labeled antibody and a HyLite Fluor 647-labeled peptide, or a biotin-labeled peptide with a streptavidin-labeled ulight fluorophore allowing the assembly of donor and acceptor dye pairs for use in protein-binding assays.
(§3) The reaction final concentrations for Mcl-1 were 1.5 nM GST-Mcl-1, 0.5 nM LanthaScreen Eu tagged GST antibody (LifeTechnologies cat#PV5594), and 4 nM HyLite Fluor 647-labeled Bim peptide C (Hilyte647 C2 Maleimide)-[…]; for Bcl-xl were 2 nM GST-Bcl-xl, 2 nM LanthaScreen Eu-tagged GST antibody, and 10 nM HyLite Fluor 647-labeled BAK peptide C(Hilyte647 C2 Maleimide)-[…]; for Bfl-1 were 4 nM His-Bfl-1, 0.5 nM LanthaScreen Eu-tagged HIS antibody (PerkinElmer cat#AD0205), and 10 nM HyLite Fluor 647-labeled BIM peptide C(Hilyte647-C2-Maleimide)-[…]; for Bcl-2 and Bcl-w: 2 nM His-Bcl-2, or 2 nM His-Bcl-w, with 0.5 nM LanthaScreen Eu-tagged HIS antibody, 10 nM biotin-labeled Bim peptide (Biotin-lc-[…]), and 2.4 nM a streptavidin labeled ULight Fluorophore (PerkinElmer cat#TRF0102-D). Reactions were incubated at 24 °C for 120–180 min before reading on a Tecan (InfiniteM1000 spectrofluorometer) with excitation at 340 nm and emission at […] and 665 nm. Ratio of fluorescent emission intensity at 665–620 nm was calculated for each reaction (equation 1). Percent inhibition was calculated based upon min (control compound) vs. max (DMSO) according to Eq. (2) and the IC50 was derived the smart fit curve (Genedata screener) of % inhibition vs. concentration. Ki values were calculated from Eq. […]

Bcl-xL = Bcl-xL (Homo sapiens, UniProt Q07817); assay: TR-FRET binding assay
Text: as §1, §2, §3

Bcl-2 = target: T2, Bcl-2 (Homo sapiens, UniProt P10415); assay: TR-FRET binding assay
T2 construct: C-Terminal 6His-tagged Bcl-2 protein from Bcl-2 (M1-F212); made in house; host or cells: E. coli
Text: as §1, §2, §3

Bcl-w = target: T3, Bcl-w (Homo sapiens, UniProt Q92843); assay: TR-FRET binding assay
T3 construct: N-Terminal 6His-tagged Bcl-w protein from Bcl-w (M1-R171); made in house; host or cells: E. coli
T3 sequence (Q92843 1-171): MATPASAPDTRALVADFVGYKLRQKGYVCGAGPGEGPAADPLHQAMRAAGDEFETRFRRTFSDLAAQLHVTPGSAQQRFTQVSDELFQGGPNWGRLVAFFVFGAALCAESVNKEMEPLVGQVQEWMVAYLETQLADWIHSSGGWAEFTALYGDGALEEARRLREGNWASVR
Text: as §1, §2, §3

HEL92.1.7 = assay: Cell viability assay; type: cell-based; details: Homo sapiens, HEL 92.1.7, 24 h; HEL92.1.7 (AML); read-out: AZD5991 24h GI50
Description: as §4

OCIAML5 = assay: Cell viability assay; type: cell-based; details: Homo sapiens, OCI-AML-5, 24 h, read-out: AZD5991 24h GI50
Description: as §4

OV90 = assay: Cell viability assay; type: cell-based; details: Homo sapiens, OV-90, 24 h; OV90 (Others); read-out: AZD5991 24h GI50
Description: as §4

Daudi = assay: Cell viability assay; type: cell-based; details: Homo sapiens, 24 h; Daudi (NHL); read-out: AZD5991 24h GI50
Description: as §4

NB4 = assay: Cell viability assay; type: cell-based; details: Homo sapiens, NB-4, 24 h; NB4 (AML); read-out: AZD5991 24h GI50
Description: as §4

H647 = assay: Cell viability assay; type: cell-based; details: Homo sapiens, NCI-H647, 24 h; H647 (Lung); read-out: AZD5991 24h GI50
Description: as §4

[2] = Plasma protein binding in fetal calf serum; type: in vitro ADME; details: bovine, read-out: plasma protein binding, free

T2 sequence (P10415 1-212): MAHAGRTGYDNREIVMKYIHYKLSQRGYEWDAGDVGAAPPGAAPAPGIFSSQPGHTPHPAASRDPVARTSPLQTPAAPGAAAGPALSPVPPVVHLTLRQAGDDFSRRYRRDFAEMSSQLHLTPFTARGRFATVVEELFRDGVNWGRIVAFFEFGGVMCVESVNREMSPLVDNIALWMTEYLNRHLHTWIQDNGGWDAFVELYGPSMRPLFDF
Bcl-xL, sequence (Q07817 1-209): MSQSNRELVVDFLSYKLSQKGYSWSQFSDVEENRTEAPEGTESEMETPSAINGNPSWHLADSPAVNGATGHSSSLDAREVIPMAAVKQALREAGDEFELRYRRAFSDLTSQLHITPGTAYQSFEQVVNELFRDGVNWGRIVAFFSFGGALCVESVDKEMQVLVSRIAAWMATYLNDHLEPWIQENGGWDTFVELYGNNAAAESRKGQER
T1 sequence (Q16548 1-151): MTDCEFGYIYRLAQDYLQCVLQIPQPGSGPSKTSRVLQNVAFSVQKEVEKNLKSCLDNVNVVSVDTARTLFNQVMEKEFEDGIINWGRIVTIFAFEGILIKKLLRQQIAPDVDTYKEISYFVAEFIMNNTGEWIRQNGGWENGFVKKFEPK

`Cc1c2c(nn1C)CSCc1cc(n(C)n1)CSc1cc(c3ccccc3c1)OCCCc1c(C(=O)O)n(C)c3c-2c(Cl)ccc13` (atropisomer, axis not shown; (Ra)) [(Ra)-7] gave a GI50 (CMK) greater than 30 µM, a GI50 (GRANTA519) of 19.3 µM and a GI50 (GIST 430/654) of 1.62 µM. It also gave a GI50 (A375) of 13.5 µM, a GI50 (H2122) of 18.7 µM and an EC50 [1] of 1.07 µM. It also gave a GI50 (MM1R) of 0.087 µM, a GI50 (ML2) of 0.069 µM and an IC50 (Bfl-1; FRET) of 24 µM. It also gave a Ki (Bfl-1; calculated from FRET IC50) of 12 µM, an IC50 (Bcl-xL; FRET) of 36 µM and a Ki (Bcl-xL; calculated from FRET IC50) of 18 µM. It also gave an IC50 (Bcl-2; FRET) of 20 µM, a Ki (Bcl-2; calculated from FRET IC50) of 6.8 µM and an IC50 (Bcl-w; FRET) of 49 µM. For the same molecule, the Ki (Bcl-w; calculated from FRET IC50) was 25 µM, the GI50 (HEL92.1.7) was 1.64 µM and the GI50 (OCIAML5) was 11 µM. It also gave a GI50 (OV90) of 22.1 µM, a GI50 (Daudi) of 0.133 µM and a GI50 (NB4) of 0.292 µM. It also gave a GI50 (H647) greater than 30 µM and a fraction unbound [2] of 0.001.
